Experimental data as given in ChEMBL document CHEMBL1201862, “PubChem BioAssay data set” (2004).
Structures can show the parent of a compound that is named as a salt. Calls of active or inactive are those of the source.

Legend:
[1] = molecular target: T1, Sentrin-specific protease 8 (Homo sapiens, UniProt Q96LD8); format: functional;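 note: luminescence read-out of SENP8 inhibition, dose-response confirmation following an ultra-high-throughput screen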
T1 sequence (Q96LD8 whole entry): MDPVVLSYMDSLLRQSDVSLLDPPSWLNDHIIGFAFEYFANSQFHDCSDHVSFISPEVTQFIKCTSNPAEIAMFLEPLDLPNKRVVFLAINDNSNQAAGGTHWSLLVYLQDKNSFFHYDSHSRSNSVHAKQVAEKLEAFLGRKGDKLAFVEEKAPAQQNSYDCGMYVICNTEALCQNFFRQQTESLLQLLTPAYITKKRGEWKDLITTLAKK

Caspase-3 = molecular target: T2, Caspase-3 (Homo sapiens, UniProt P42574); format: functional;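 note: Dose-response selectivity test against caspase-3 for candidate inhibitors of sentrin-specific proteases (SENPs)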
T2 sequence (P42574 whole entry): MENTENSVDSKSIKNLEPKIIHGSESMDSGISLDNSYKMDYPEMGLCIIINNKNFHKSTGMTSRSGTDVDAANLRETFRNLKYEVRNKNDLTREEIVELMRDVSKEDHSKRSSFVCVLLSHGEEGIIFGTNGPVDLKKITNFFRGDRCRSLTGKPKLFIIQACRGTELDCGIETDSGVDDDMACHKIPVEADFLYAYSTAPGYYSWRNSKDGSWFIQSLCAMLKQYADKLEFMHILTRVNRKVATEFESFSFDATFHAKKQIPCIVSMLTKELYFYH

[2] = molecular target: T3, Sentrin-specific protease 6 (Homo sapiens, UniProt Q9GZR1); format: functional;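 note: Luminescence-based dose-response confirmatory assay of SENP6 inhibition, following up an ultra-high-throughput screen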
T3 sequence (Q9GZR1 whole entry): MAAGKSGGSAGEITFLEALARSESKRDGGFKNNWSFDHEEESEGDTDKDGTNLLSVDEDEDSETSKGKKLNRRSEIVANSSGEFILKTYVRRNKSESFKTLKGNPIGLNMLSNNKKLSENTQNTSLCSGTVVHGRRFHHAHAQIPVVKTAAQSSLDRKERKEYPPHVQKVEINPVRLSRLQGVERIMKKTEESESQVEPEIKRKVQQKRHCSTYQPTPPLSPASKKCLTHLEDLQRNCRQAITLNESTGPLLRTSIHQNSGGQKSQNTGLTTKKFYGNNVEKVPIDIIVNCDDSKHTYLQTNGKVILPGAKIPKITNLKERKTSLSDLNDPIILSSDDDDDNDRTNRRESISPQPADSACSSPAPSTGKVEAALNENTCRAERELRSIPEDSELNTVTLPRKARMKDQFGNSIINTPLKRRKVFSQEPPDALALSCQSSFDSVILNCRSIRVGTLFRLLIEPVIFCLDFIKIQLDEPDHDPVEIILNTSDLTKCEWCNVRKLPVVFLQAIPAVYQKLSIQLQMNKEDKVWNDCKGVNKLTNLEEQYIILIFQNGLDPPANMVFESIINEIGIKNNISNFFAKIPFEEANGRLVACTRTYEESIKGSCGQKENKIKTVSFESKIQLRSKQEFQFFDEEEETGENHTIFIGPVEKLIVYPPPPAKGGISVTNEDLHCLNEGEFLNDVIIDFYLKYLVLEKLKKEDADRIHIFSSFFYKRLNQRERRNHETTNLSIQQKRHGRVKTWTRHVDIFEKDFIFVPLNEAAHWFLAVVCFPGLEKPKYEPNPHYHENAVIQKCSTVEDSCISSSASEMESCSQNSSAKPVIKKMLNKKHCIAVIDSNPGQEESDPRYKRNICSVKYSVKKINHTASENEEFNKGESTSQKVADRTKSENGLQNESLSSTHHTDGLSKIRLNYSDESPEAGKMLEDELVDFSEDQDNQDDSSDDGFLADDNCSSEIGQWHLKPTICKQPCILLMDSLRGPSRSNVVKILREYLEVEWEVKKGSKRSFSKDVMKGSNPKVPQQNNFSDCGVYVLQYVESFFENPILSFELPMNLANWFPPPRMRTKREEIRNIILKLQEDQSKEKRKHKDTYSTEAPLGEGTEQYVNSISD

[3] = molecular target: T4, Sentrin-specific protease 7 (Homo sapiens, UniProt Q9BQF6); format: functional;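 note: Luminescence-based dose-response confirmation of ultra-high-throughput screening hits, measuring inhibition of SENP7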
T4 sequence (Q9BQF6 whole entry): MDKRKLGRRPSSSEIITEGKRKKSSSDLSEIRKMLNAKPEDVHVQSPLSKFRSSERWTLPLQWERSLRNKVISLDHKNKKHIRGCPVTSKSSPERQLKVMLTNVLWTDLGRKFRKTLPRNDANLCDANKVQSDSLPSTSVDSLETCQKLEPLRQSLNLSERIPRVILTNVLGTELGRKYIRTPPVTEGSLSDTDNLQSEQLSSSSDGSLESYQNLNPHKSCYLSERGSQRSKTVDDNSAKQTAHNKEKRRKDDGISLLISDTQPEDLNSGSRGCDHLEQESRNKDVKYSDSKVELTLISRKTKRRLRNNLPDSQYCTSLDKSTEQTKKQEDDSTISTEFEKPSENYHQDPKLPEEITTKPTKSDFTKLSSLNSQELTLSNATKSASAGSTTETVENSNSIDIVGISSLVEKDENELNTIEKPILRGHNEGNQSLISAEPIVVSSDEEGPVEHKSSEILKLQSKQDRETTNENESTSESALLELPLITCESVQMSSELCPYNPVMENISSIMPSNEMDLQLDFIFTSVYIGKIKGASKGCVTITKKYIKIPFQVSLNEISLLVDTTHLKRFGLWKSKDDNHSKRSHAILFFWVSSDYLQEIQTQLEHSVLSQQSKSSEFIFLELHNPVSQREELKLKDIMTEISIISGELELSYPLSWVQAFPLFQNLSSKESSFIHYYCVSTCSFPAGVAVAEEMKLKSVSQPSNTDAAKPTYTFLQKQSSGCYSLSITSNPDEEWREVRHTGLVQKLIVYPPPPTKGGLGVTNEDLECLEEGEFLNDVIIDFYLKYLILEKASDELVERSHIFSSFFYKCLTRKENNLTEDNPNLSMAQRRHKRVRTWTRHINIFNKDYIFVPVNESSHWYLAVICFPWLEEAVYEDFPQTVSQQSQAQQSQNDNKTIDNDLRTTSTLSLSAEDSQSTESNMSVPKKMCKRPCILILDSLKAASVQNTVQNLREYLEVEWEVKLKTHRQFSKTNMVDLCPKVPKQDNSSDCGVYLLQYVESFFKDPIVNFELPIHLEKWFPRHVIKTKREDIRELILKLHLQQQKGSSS

[4] = LGR2 antagonists, dose response, cell-based, HEK293, CRE-luciferase reporter, cherry pick, set 2 (AID 743343); format: functional;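 note: transfected cells were stimulated with diluted bursicon conditioned medium after compound addition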
[5] = A549 cell cytotoxicity, dose response, cytotoxicity control, plate reader, cherry-pick, antagonist series (AID 743412); format: functional, cell-based
Escherichia coli [6] = assay: microbe, parasite or virus in culture
[7] = MC4R antagonists, dose response, counter-screen for LGR2 antagonist project, cell-based, plate reader, cherry pick (AID 743444); format: functional;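 note: transfected HEK 293 cells stimulated with alpha-MSH peptide; potency of inhibitors of the alpha-MSH evoked signal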
[8] = HepG2 cell cytotoxicity, dose response, cytotoxicity control, plate reader, cherry-pick, antagonist series (AID 743416); format: functional, cell-based
Paired box protein Pax-8 = Paired box protein Pax-8 (Homo sapiens, UniProt Q06710); assay: inhibitors of PAX8-driven TPO luciferase reporter, dose response, RMG-I cells, cherry-pick (AID 687027); format: functional, cell-based;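 note: luciferase reporter driven by Pax8 target thyroperoxidase promoter measured by SteadyGlo luminescence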
Escherichia coli [9] = assay: microbe, parasite or virus in culture; remark: listed apart in the source
[10] = Fluorescence-based cell-based high throughput dose response assay for inhibitors of the interaction of nucleotide-binding oligomerization domain containing 2 (NOD2) and the receptor-interacting serine-threonine kinase 2 (RIPK2).; format: functional; settings: Homo sapiens
[11] = HEK293 cell cytotoxicity, dose response, cytotoxicity control, plate reader, cherry-picked samples (AID 743446); format: functional, cell-based
Cytochrome P450 2C19 = Cytochrome P450 2C19 (Homo sapiens, UniProt P33261); assay: Cytochrome panel assay with activity outcomes. Panel member name: p450-cyp2c19 Compounds with AC50 equal or less than 10 uM are considered active; format: functional; settings: read-out: AC50
Cytochrome P450 3A4 = Cytochrome P450 3A4 (Homo sapiens, UniProt P08684);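 note: CYP3A4 tested as one member of a cytochrome P450 panel screen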
Cytochrome P450 1A2 = molecular target: T5, Cytochrome P450 1A2 (Homo sapiens, UniProt P05177);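 note: PubChem cytochrome P450 panel assay, CYP1A2 panel member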
T5 sequence (P05177 whole entry): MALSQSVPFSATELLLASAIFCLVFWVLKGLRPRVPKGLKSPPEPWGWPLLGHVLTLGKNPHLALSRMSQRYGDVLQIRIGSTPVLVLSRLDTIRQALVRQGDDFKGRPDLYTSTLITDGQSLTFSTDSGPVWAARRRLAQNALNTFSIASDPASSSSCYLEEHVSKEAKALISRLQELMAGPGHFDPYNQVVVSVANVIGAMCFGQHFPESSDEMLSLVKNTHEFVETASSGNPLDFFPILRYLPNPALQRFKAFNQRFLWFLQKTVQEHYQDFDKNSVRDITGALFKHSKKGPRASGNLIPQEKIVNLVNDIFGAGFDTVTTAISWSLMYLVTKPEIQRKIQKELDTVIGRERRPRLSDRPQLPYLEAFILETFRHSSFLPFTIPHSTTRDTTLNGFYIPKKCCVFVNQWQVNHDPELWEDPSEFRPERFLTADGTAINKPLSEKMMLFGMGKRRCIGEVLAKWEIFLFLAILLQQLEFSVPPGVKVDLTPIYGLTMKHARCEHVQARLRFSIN

cells [12] = format: functional, cell-based
BJ [13] = assay: cytotoxicity toward Ras-transformed BJeLR fibroblasts, dose response, cell-based, alamar blue fluorescence, cherrypicked samples (AID 2631); format: functional; settings: Homo sapiens;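 note: confirmatory dose-response assay in RAS-dependent BJ fibroblasts engineered with TERT, LT and ST, with cytotoxicity read by fluorescence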
BJ [14] = assay: cytotoxicity toward BJ-TERT-LT-ST fibroblasts, dose response, cell-based, RAS-independent, luminescence (AID 1935); format: functional; settings: Homo sapiens;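 note: BJ fibroblasts immortalized with TERT plus LT and ST oncogenes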
[15] = Luminescence Cell-Based Dose Response HTS to Identify Inhibitors of 5'UTR Stem-Loop Driven Prion Protein mRNA Translation in H4 Neuroglioblastoma Cells. [Related pubchem assays: 1827 (Project Summary), 1813 (Primary HTS)]; format: functional
[16] = inhibitors of SNCA 5'UTR-driven reporter translation, confirmation, H4 neuroglioma cells, luminescence (AID 1988); format: functional, cell-based
[17] = cytotoxicity toward DRD oncogenic fibroblasts, dose response, cell-based, non-viral oncogenic, luminescence (AID 1934); format: functional; settings: Homo sapiens
[18] = inhibitors of SNCA 5'UTR-driven translation, confirmation, luminescence, H4 neuroglioblastoma cells, dose confirmation (AID 2454); format: functional, cell-based;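 note: H4 neuroglioblastoma cells carrying an alpha-synuclein 5'UTR luciferase reporter; potency for inhibition of the luciferase signal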
BJ [19] = assay: cytotoxicity toward BJ-TERT fibroblasts, dose response, cell-based, RAS-independent, luminescence (AID 1933); format: functional; settings: Homo sapiens
[20] = luciferase reporter signal reduction – luminescence, H4-C neuroglioblastoma cells, dose response (AID 2458); format: functional, cell-based;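 note: H4 neuroglioblastoma cells stably carrying a luciferase reporter gene fusion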
[21] = inhibitors of firefly luciferase expression or activity, dose response, H4 neuroglioma cells, luminescence (AID 1990); format: functional, cell-based
cells [22] = format: functional, cell-based; remark: listed apart in the source
BJ [23] = assay: cells; format: functional, cell-based; settings: Homo sapiens
[24] = molecular target: T6, Nuclear receptor subfamily 0 group B member 1 (Homo sapiens, UniProt P51843); format: functional, cell-based;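 note: HEK293T cells transfected with SF-1 and DAX-1 plus StAR promoter luciferase reporter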
T6 sequence (P51843 whole entry): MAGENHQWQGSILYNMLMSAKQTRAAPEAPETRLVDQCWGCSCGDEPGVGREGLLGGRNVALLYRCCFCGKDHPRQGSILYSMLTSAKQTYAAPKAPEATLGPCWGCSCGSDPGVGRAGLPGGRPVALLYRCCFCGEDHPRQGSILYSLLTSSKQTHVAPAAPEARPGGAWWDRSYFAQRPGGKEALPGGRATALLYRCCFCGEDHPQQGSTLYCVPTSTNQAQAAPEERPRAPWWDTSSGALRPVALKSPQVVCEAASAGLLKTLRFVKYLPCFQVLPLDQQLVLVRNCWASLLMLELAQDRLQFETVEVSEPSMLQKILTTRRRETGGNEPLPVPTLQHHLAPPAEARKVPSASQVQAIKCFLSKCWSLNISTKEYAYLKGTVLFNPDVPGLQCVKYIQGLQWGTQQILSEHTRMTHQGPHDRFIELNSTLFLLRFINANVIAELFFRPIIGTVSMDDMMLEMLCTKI

Streptococcus = assay: Group A Streptococcus viability loss, dose response, counter-screen for streptokinase expression inhibitor project, luminescence, BacTiterGlo (AID 1915); format: functional, organism-based;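 note: potency for reduction of bacterial viability or growth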
[25] = system: Streptococcus sp. 'group A'; assay: growth inhibition of control SK(-) GAS strain, dose response, counter-screen for streptokinase expression inhibitor project, luminescence, kanamycin, BacTiterGlo, confirmation (AID 1900); format: functional, organism-based

Sequence of Paired box protein Pax-8 (Q06710 whole entry): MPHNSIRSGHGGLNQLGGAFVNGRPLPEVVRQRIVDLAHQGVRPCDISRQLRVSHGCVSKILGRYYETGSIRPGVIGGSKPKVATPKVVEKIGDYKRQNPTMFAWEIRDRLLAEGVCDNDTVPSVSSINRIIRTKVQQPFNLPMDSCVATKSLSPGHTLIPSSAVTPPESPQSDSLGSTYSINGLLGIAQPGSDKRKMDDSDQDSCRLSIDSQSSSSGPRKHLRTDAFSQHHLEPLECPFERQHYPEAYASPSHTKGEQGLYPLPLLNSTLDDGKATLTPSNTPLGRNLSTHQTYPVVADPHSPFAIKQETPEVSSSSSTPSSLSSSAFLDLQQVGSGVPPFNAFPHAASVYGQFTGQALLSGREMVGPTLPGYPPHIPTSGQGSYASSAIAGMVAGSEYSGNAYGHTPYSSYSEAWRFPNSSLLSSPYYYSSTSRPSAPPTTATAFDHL
Sequence of Cytochrome P450 2C19 (P33261 whole entry): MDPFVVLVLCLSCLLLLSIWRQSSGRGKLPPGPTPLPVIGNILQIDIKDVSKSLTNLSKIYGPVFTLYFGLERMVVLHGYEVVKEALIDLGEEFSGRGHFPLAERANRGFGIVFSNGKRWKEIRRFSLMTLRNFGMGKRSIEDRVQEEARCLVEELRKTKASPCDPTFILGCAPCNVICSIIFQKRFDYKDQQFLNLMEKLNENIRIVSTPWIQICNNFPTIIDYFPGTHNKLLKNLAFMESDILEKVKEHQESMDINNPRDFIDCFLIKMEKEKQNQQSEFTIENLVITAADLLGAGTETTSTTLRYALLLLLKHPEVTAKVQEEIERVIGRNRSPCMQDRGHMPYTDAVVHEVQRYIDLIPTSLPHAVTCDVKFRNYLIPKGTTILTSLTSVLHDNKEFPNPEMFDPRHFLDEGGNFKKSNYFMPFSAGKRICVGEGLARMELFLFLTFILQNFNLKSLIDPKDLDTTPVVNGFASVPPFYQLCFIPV
Sequence of Cytochrome P450 3A4 (P08684 whole entry): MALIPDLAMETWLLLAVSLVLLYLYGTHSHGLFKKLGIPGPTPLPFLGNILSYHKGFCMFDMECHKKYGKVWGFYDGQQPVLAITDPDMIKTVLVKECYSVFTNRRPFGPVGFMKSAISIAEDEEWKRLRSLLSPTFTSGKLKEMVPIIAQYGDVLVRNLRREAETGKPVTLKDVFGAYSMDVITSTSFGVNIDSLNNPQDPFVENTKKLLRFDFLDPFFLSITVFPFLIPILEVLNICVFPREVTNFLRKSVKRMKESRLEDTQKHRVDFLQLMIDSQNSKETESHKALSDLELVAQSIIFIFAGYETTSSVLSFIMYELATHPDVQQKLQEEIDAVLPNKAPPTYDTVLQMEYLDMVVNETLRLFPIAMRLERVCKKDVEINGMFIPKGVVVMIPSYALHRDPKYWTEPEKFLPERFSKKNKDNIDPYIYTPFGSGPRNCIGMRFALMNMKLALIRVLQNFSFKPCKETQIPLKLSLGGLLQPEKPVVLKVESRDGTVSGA

Cc1cccc(/C=N\N=C\c2cccc(C)c2)c1
IC50 [1]: 47 µM (active)
IC50 (Caspase-3): 24.6 µM (active)
IC50 [2]: 27.6 µM (active)
IC50 [3]: 7.09 µM (active)

N#CC1c2ccccc2-n2nncc2CN1Cc1cc(Cl)cc(Cl)c1 (stereo not drawn)
AC50 [4]: 3.37 µM (active)
AC50 [5]: 15.2 µM (active)
AC50 (Escherichia coli [6]): 2.36 µM (active)
AC50 [7]: 2.45 µM (active)
AC50 [8]: 7.48 µM (active)
AC50 (Paired box protein Pax-8): 10.2 µM (active)
AC50 (Escherichia coli [9]): 22.5 µM (active)
IC50 [10]: 5.8 µM (active)
AC50 [11]: 6.5 µM (active)

c1ccc(CN2CCC3(CCCc4ccccc43)CC2)cc1
AC50 (Cytochrome P450 2C19): 10 µM (inconclusive)
AC50 (Cytochrome P450 3A4): inconclusive
AC50 (Cytochrome P450 1A2): 31.6 µM (inconclusive)

O=C(c1cc([N+](=O)[O-])ccc1N1CCOCC1)N1CCN(c2ccccc2)CC1
EC50 (cells [12]): 0.959 µM (active)
EC50 (BJ [13]): < 0.104 µM (active)
EC50 (BJ [14]): 0.338 µM (inconclusive)
EC50 [15]: < 0.1 µM (active)
EC50 [16]: < 0.1 µM (active)
EC50 [17]: 0.633 µM (inconclusive)
EC50 [18]: 0.738 µM (active)
EC50 (BJ [19]): 0.309 µM (active)
EC50 [20]: 0.501 µM (active)
EC50 [21]: 0.681 µM (active)
IC50 (cells [22]): > 67.5 µM (inactive)
AC50 (Paired box protein Pax-8): 3.76 µM (active)
EC50 (BJ [23]): 1.2 µM (inconclusive)
IC50 [24]: > 67.5 µM (inactive)

COc1ccc2nc(NC(=O)c3cccc(OCc4c(C)noc4C)c3)sc2c1
IC50 [1]: > 100 µM (inactive)
IC50 (Caspase-3): > 100 µM (inactive)
IC50 [2]: 4.78 µM (active)
IC50 [3]: 3.67 µM (active)

CN(C)[C@@H]1C(O)=C(C(N)=O)C(=O)[C@@]2(O)C(O)=C3C(=O)c4c(O)ccc(Cl)c4[C@@](C)(O)[C@H]3C[C@@H]12 [CHLORTETRACYCLINE HYDROCHLORIDE]
EC50 (Streptococcus): 0.148 µM (active)
EC50 [25]: < 0.06 µM (active)
AC50 (Escherichia coli [6]): 0.93 µM (active)
AC50 (Escherichia coli [9]): 19.8 µM (active)
